Source: PubChem BioAssay (NCI)
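1) Cells in 96-well plates. 2) Compound, 48 h, 5 concentrations. 3) Linear interpolation between surrounding doses. 4) Unreached endpoint = highest concentration. At the TGI there is no net growth.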

Columns and labels:
Assay in all cases: NCI anticancer screen, dose series, 48 h
[1] = test system: SF-539 CNS
[2] = test system: SW-620 colon
[3] = test system: EKVX NSCLC
[4] = test system: A549 NSCLC
[5] = test system: NCI-H23 lung
[6] = test system: RXF 393 renal
[7] = test system: IGROV1 ovarian
[8] = test system: HCT-116 colon
[9] = test system: SNB-19 CNS
[10] = test system: SF-295 CNS
[11] = test system: SK-OV-3 ovarian
[12] = test system: DMS 114 small cell lung
[13] = test system: HCC-2998 colon
[14] = test system: SF-268 CNS
[15] = test system: OVCAR-5 ovarian
[16] = test system: SK-MEL-5 melanoma
[17] = test system: K-562 leukemia
[18] = test system: LXFL 529 NSCLC
[19] = test system: SN12C renal
[20] = test system: MOLT-4 leukemia
[21] = test system: NCI-H226 lung
[22] = test system: UO-31 renal
[23] = test system: TK-10 renal
[24] = test system: OVCAR-3 ovarian
[25] = test system: UACC-257 melanoma
[26] = test system: KM12 colon
[27] = test system: M19-MEL melanoma
[28] = test system: U251 CNS
[29] = test system: SK-MEL-28 melanoma
[30] = test system: RPMI-8226 leukemia
[31] = test system: HCT-15 colon
[32] = test system: UACC-62 melanoma
[33] = test system: HOP-92 NSCLC
[34] = test system: SK-MEL-2 melanoma
[35] = test system: SNB-78 CNS
[36] = test system: HT29 colon
[37] = test system: OVCAR-4 ovarian
[38] = test system: COLO 205 colon
[39] = test system: SNB-75 CNS
[40] = test system: NCI-H522 lung
[41] = test system: OVCAR-8 ovarian
[42] = test system: MALME-3M melanoma
[43] = test system: DMS 273 small cell lung
[44] = test system: KM20L2 colon
[45] = test system: 786-0 renal
[46] = test system: HOP-62 NSCLC
[47] = test system: NCI-H460 lung
[48] = test system: M14 melanoma
[49] = test system: SR leukemia
[50] = test system: CCRF-CEM leukemia
[51] = test system: HL-60(TB) leukemia
[52] = test system: CAKI-1 renal
[53] = test system: A498 renal
[54] = test system: DLD-1 colon
[55] = test system: ACHN renal
[56] = test system: LOX IMVI melanoma

Measured: TGI

CCOC(=O)c1cnc2oc(-c3ccc(OC)cc3)nn2c1=O
not listed: [46] | [47] | [48] | [49] | [50] | [51] | [52] | [53] | [54] | [55] | [56]
> 100 µM: all other assays above

COc1ccc(C2C(Cl)C(=O)N2NC(=O)c2ccccc2O)cc1 (configuration not stated)
not listed: [13] | [15] | [21] | [31] | [35] | [43] | [45] | [52] | [53] | [54] | [55] | [56]
> 100 µM: all other assays above

COc1nc(C(=O)O)c(Cl)c(OC)c1Cl
not listed: [17] | [18] | [21] | [28] | [31] | [35] | [39] | [43] | [56]
> 100 µM: all other assays above

c1ccc(C2=NOC3COc4ccccc4OCC23)cc1 (configuration not stated)
not listed: [7] | [15] | [21] | [27] | [33] | [54]
> 100 µM: all other assays above

COc1ccc2c(c1)CC[C@@H]1C2CC[C@]2(C)C(=O)N(CCN3CCCC3)C(=O)CC12 (some centres not stated)
31.1 µM: [48]
32.2 µM: [34]
86.7 µM: [6]
35.1 µM: [32]
34.8 µM: [36]
45.2 µM: [51]
31.5 µM: [42]
55 µM: [44]
87.1 µM: [39]
38.9 µM: [29]
> 100 µM: [5] | [7] | [47] | [9] | [11] | [14] | [15] | [49] | [53] | [24] | [26] | [28] | [55] | [35] | [37]
70.1 µM: [17]
49.9 µM: [22]
35.7 µM: [27]
66.6 µM: [46]
81.8 µM: [33]
38.7 µM: [25]
89.6 µM: [18]
34.4 µM: [30]
57.7 µM: [20]
76.4 µM: [12]
52.7 µM: [40]
35.8 µM: [45]
42.1 µM: [10]
37.6 µM: [38]

CC1(SCC(N)C(=O)O)CC(=O)NC1=O (configuration not stated)
not listed: [15] | [42] | [48] | [54]
> 100 µM: all other assays above
